Assay results: ChEMBL document CHEMBL5537170, “Design, Synthesis, and Anti-Osteoporotic Characterization of Arginine N-Glycosylated Teriparatide Analogs via the Silver-catalyzed Solid-Phase Glycosylation Strategy” (J Med Chem, 2024)

Experiment: Cytotoxicity against C57BL/6 mouse Pre-Osteoblast cells assessed as cell death upto 5 uM incubated for 4 days by CCK-8 assay
Type: toxicity, cell-based
Conditions: 96 h, time 4 day

| SMILES | Activity |
| --- | --- |
| CC[C@H](C)[C@H](NC(=O)[C@H](CCC(=O)O)NC(=O)[C@H](CO)NC(=O)[C@@H](NC(=O)[C@H](CO)NC(C)=O)C(C)C)C(=O)N[C@@H](CCC(N)=O)C(=O)N[C@@H](CC(C)C)C(=O)N[C@@H](CCSC)C(=O)N[C@@H](Cc1cnc[nH]1)C(=O)N[C@@H](CC(N)=O)C(=O)N[C@@H](CC(C)C)C(=O)NCC(=O)N[C@@H](CCCCN)C(=O)N[C@@H](Cc1cnc[nH]1)C(=O)N[C@@H](CC(C)C)C(=O)N[C@@H](CC(N)=O)C(=O)N[C@@H](CO)C(=O)N[C@@H](CCSC)C(=O)N[C@@H](CCC(=O)O)C(=O)N[C@@H](CCCNC(=N)N[C@@H]1O[C@H](CO)[C@@H](O[C@@H]2O[C@H](CO)[C@H](O)[C@H](O)[C@H]2O)[C@H](O)[C@H]1O)C(=O)N[C@H](C(=O)N[C@@H](CCC(=O)O)C(=O)N[C@@H](Cc1c[nH]c2ccccc12)C(=O)N[C@@H](CC(C)C)C(=O)N[C@@H](CCCNC(=N)N[C@@H]1O[C@H](CO)[C@@H](O[C@@H]2O[C@H](CO)[C@H](O)[C@H](O)[C@H]2O)[C@H](O)[C@H]1O)C(=O)N[C@@H](CCCCN)C(=O)N[C@@H](CCCCN)C(=O)N[C@@H](CC(C)C)C(=O)N[C@@H](CCC(N)=O)C(=O)N[C@@H](CC(=O)O)C(=O)N[C@H](C(=O)N[C@@H](Cc1cnc[nH]1)C(=O)N[C@@H](CC(N)=O)C(=O)N[C@@H](Cc1ccccc1)C(N)=O)C(C)C)C(C)C | Non-Toxic |
| CC[C@H](C)[C@H](NC(=O)[C@H](CCC(=O)O)NC(=O)[C@H](CO)NC(=O)[C@@H](NC(=O)[C@H](CO)NC(C)=O)C(C)C)C(=O)N[C@@H](CCC(N)=O)C(=O)N[C@@H](CC(C)C)C(=O)N[C@@H](CCSC)C(=O)N[C@@H](Cc1cnc[nH]1)C(=O)N[C@@H](CC(N)=O)C(=O)N[C@@H](CC(C)C)C(=O)NCC(=O)N[C@@H](CCCCN)C(=O)N[C@@H](Cc1cnc[nH]1)C(=O)N[C@@H](CC(C)C)C(=O)N[C@@H](CC(N)=O)C(=O)N[C@@H](CO)C(=O)N[C@@H](CCSC)C(=O)N[C@@H](CCC(=O)O)C(=O)N[C@@H](CCCNC(=N)N)C(=O)N[C@H](C(=O)N[C@@H](CCC(=O)O)C(=O)N[C@@H](Cc1c[nH]c2ccccc12)C(=O)N[C@@H](CC(C)C)C(=O)N[C@@H](CCCNC(=N)N[C@H]1O[C@H](CO)[C@@H](O)[C@H](O)[C@@H]1O)C(=O)N[C@@H](CCCCN)C(=O)N[C@@H](CCCCN)C(=O)N[C@@H](CC(C)C)C(=O)N[C@@H](CCC(N)=O)C(=O)N[C@@H](CC(=O)O)C(=O)N[C@H](C(=O)N[C@@H](Cc1cnc[nH]1)C(=O)N[C@@H](CC(N)=O)C(=O)N[C@@H](Cc1ccccc1)C(N)=O)C(C)C)C(C)C | Non-Toxic |
| CC[C@H](C)[C@H](NC(=O)[C@H](CCC(=O)O)NC(=O)[C@H](CO)NC(=O)[C@@H](NC(=O)[C@H](CO)NC(C)=O)C(C)C)C(=O)N[C@@H](CCC(N)=O)C(=O)N[C@@H](CC(C)C)C(=O)N[C@@H](CCSC)C(=O)N[C@@H](Cc1cnc[nH]1)C(=O)N[C@@H](CC(N)=O)C(=O)N[C@@H](CC(C)C)C(=O)NCC(=O)N[C@@H](CCCCN)C(=O)N[C@@H](Cc1cnc[nH]1)C(=O)N[C@@H](CC(C)C)C(=O)N[C@@H](CC(N)=O)C(=O)N[C@@H](CO)C(=O)N[C@@H](CCSC)C(=O)N[C@@H](CCC(=O)O)C(=O)N[C@@H](CCCNC(=N)N)C(=O)N[C@H](C(=O)N[C@@H](CCC(=O)O)C(=O)N[C@@H](Cc1c[nH]c2ccccc12)C(=O)N[C@@H](CC(C)C)C(=O)N[C@@H](CCCNC(=N)N[C@@H]1O[C@H](CO)[C@@H](O)[C@H](O)[C@H]1NC(C)=O)C(=O)N[C@@H](CCCCN)C(=O)N[C@@H](CCCCN)C(=O)N[C@@H](CC(C)C)C(=O)N[C@@H](CCC(N)=O)C(=O)N[C@@H](CC(=O)O)C(=O)N[C@H](C(=O)N[C@@H](Cc1cnc[nH]1)C(=O)N[C@@H](CC(N)=O)C(=O)N[C@@H](Cc1ccccc1)C(N)=O)C(C)C)C(C)C | Non-Toxic |
| CC[C@H](C)[C@H](NC(=O)[C@H](CCC(=O)O)NC(=O)[C@H](CO)NC(=O)[C@@H](NC(=O)[C@H](CO)NC(C)=O)C(C)C)C(=O)N[C@@H](CCC(N)=O)C(=O)N[C@@H](CC(C)C)C(=O)N[C@@H](CCSC)C(=O)N[C@@H](Cc1cnc[nH]1)C(=O)N[C@@H](CC(N)=O)C(=O)N[C@@H](CC(C)C)C(=O)NCC(=O)N[C@@H](CCCCN)C(=O)N[C@@H](Cc1cnc[nH]1)C(=O)N[C@@H](CC(C)C)C(=O)N[C@@H](CC(N)=O)C(=O)N[C@@H](CO)C(=O)N[C@@H](CCSC)C(=O)N[C@@H](CCC(=O)O)C(=O)N[C@@H](CCCNC(=N)N[C@H]1O[C@H](CO)[C@@H](O)[C@H](O)[C@@H]1O)C(=O)N[C@H](C(=O)N[C@@H](CCC(=O)O)C(=O)N[C@@H](Cc1c[nH]c2ccccc12)C(=O)N[C@@H](CC(C)C)C(=O)N[C@@H](CCCNC(=N)N)C(=O)N[C@@H](CCCCN)C(=O)N[C@@H](CCCCN)C(=O)N[C@@H](CC(C)C)C(=O)N[C@@H](CCC(N)=O)C(=O)N[C@@H](CC(=O)O)C(=O)N[C@H](C(=O)N[C@@H](Cc1cnc[nH]1)C(=O)N[C@@H](CC(N)=O)C(=O)N[C@@H](Cc1ccccc1)C(N)=O)C(C)C)C(C)C | Non-Toxic |
| CC[C@H](C)[C@H](NC(=O)[C@H](CCC(=O)O)NC(=O)[C@H](CO)NC(=O)[C@@H](NC(=O)[C@H](CO)NC(C)=O)C(C)C)C(=O)N[C@@H](CCC(N)=O)C(=O)N[C@@H](CC(C)C)C(=O)N[C@@H](CCSC)C(=O)N[C@@H](Cc1cnc[nH]1)C(=O)N[C@@H](CC(N)=O)C(=O)N[C@@H](CC(C)C)C(=O)NCC(=O)N[C@@H](CCCCN)C(=O)N[C@@H](Cc1cnc[nH]1)C(=O)N[C@@H](CC(C)C)C(=O)N[C@@H](CC(N)=O)C(=O)N[C@@H](CO)C(=O)N[C@@H](CCSC)C(=O)N[C@@H](CCC(=O)O)C(=O)N[C@@H](CCCNC(=N)N[C@@H]1O[C@H](CO)[C@@H](O)[C@H]1O)C(=O)N[C@H](C(=O)N[C@@H](CCC(=O)O)C(=O)N[C@@H](Cc1c[nH]c2ccccc12)C(=O)N[C@@H](CC(C)C)C(=O)N[C@@H](CCCNC(=N)N)C(=O)N[C@@H](CCCCN)C(=O)N[C@@H](CCCCN)C(=O)N[C@@H](CC(C)C)C(=O)N[C@@H](CCC(N)=O)C(=O)N[C@@H](CC(=O)O)C(=O)N[C@H](C(=O)N[C@@H](Cc1cnc[nH]1)C(=O)N[C@@H](CC(N)=O)C(=O)N[C@@H](Cc1ccccc1)C(N)=O)C(C)C)C(C)C | Non-Toxic |
| CC[C@H](C)[C@H](NC(=O)[C@H](CCC(=O)O)NC(=O)[C@H](CO)NC(=O)[C@@H](NC(=O)[C@H](CO)NC(C)=O)C(C)C)C(=O)N[C@@H](CCC(N)=O)C(=O)N[C@@H](CC(C)C)C(=O)N[C@@H](CCSC)C(=O)N[C@@H](Cc1cnc[nH]1)C(=O)N[C@@H](CC(N)=O)C(=O)N[C@@H](CC(C)C)C(=O)NCC(=O)N[C@@H](CCCCN)C(=O)N[C@@H](Cc1cnc[nH]1)C(=O)N[C@@H](CC(C)C)C(=O)N[C@@H](CC(N)=O)C(=O)N[C@@H](CO)C(=O)N[C@@H](CCSC)C(=O)N[C@@H](CCC(=O)O)C(=O)N[C@@H](CCCNC(=N)N)C(=O)N[C@H](C(=O)N[C@@H](CCC(=O)O)C(=O)N[C@@H](Cc1c[nH]c2ccccc12)C(=O)N[C@@H](CC(C)C)C(=O)N[C@@H](CCCNC(=N)N[C@@H]1O[C@@H](C)[C@H](O)[C@@H](O)[C@H]1O)C(=O)N[C@@H](CCCCN)C(=O)N[C@@H](CCCCN)C(=O)N[C@@H](CC(C)C)C(=O)N[C@@H](CCC(N)=O)C(=O)N[C@@H](CC(=O)O)C(=O)N[C@H](C(=O)N[C@@H](Cc1cnc[nH]1)C(=O)N[C@@H](CC(N)=O)C(=O)N[C@@H](Cc1ccccc1)C(N)=O)C(C)C)C(C)C | Non-Toxic |
| CC[C@H](C)[C@H](NC(=O)[C@H](CCC(=O)O)NC(=O)[C@H](CO)NC(=O)[C@@H](NC(=O)[C@H](CO)NC(C)=O)C(C)C)C(=O)N[C@@H](CCC(N)=O)C(=O)N[C@@H](CC(C)C)C(=O)N[C@@H](CCSC)C(=O)N[C@@H](Cc1cnc[nH]1)C(=O)N[C@@H](CC(N)=O)C(=O)N[C@@H](CC(C)C)C(=O)NCC(=O)N[C@@H](CCCCN)C(=O)N[C@@H](Cc1cnc[nH]1)C(=O)N[C@@H](CC(C)C)C(=O)N[C@@H](CC(N)=O)C(=O)N[C@@H](CO)C(=O)N[C@@H](CCSC)C(=O)N[C@@H](CCC(=O)O)C(=O)N[C@@H](CCCNC(=N)N)C(=O)N[C@H](C(=O)N[C@@H](CCC(=O)O)C(=O)N[C@@H](Cc1c[nH]c2ccccc12)C(=O)N[C@@H](CC(C)C)C(=O)N[C@@H](CCCNC(=N)N[C@@H]1O[C@H](CO)[C@@H](O)[C@H](O)[C@H]1O)C(=O)N[C@@H](CCCCN)C(=O)N[C@@H](CCCCN)C(=O)N[C@@H](CC(C)C)C(=O)N[C@@H](CCC(N)=O)C(=O)N[C@@H](CC(=O)O)C(=O)N[C@H](C(=O)N[C@@H](Cc1cnc[nH]1)C(=O)N[C@@H](CC(N)=O)C(=O)N[C@@H](Cc1ccccc1)C(N)=O)C(C)C)C(C)C | Non-Toxic |
| CC[C@H](C)[C@H](NC(=O)[C@H](CCC(=O)O)NC(=O)[C@H](CO)NC(=O)[C@@H](NC(=O)[C@H](CO)NC(C)=O)C(C)C)C(=O)N[C@@H](CCC(N)=O)C(=O)N[C@@H](CC(C)C)C(=O)N[C@@H](CCSC)C(=O)N[C@@H](Cc1cnc[nH]1)C(=O)N[C@@H](CC(N)=O)C(=O)N[C@@H](CC(C)C)C(=O)NCC(=O)N[C@@H](CCCCN)C(=O)N[C@@H](Cc1cnc[nH]1)C(=O)N[C@@H](CC(C)C)C(=O)N[C@@H](CC(N)=O)C(=O)N[C@@H](CO)C(=O)N[C@@H](CCSC)C(=O)N[C@@H](CCC(=O)O)C(=O)N[C@@H](CCCNC(=N)N[C@@H]1O[C@H](CO)[C@@H](O[C@H]2O[C@H](CO)[C@@H](O)[C@H](O)[C@H]2O)[C@H](O)[C@H]1O)C(=O)N[C@H](C(=O)N[C@@H](CCC(=O)O)C(=O)N[C@@H](Cc1c[nH]c2ccccc12)C(=O)N[C@@H](CC(C)C)C(=O)N[C@@H](CCCNC(=N)N[C@@H]1O[C@H](CO)[C@@H](O[C@H]2O[C@H](CO)[C@@H](O)[C@H](O)[C@H]2O)[C@H](O)[C@H]1O)C(=O)N[C@@H](CCCCN)C(=O)N[C@@H](CCCCN)C(=O)N[C@@H](CC(C)C)C(=O)N[C@@H](CCC(N)=O)C(=O)N[C@@H](CC(=O)O)C(=O)N[C@H](C(=O)N[C@@H](Cc1cnc[nH]1)C(=O)N[C@@H](CC(N)=O)C(=O)N[C@@H](Cc1ccccc1)C(N)=O)C(C)C)C(C)C | Non-Toxic |
